Data: publication PMC12299477 (Viruses, 2025)
Where two headings read alike, the source gives them in different places.

How the values were obtained:
[1] = test system: MRC-5 cells; assay: Cytotoxic effect microscopically visible in the HCoV-OC43 screening; type: cell-based, human; parameters: key: -: Cytotoxic effect microscopically visible; conditions: 33 µM
[2] = test system: Hep-2 cells; assay: Cytotoxic effect microscopically visible in the RSV-A2 screening; type: cell-based, human; parameters: key: -: Cytotoxic effect microscopically visible
[3] = test system: MDCK cells; assay: Cytotoxic effect microscopically visible in the IFV-A H1N1 screening; type: cell-based, canine; parameters: key: -: Cytotoxic effect microscopically visible; conditions: 33 µM
[4] = test system: HCoV-OC43; assay: Virus inhibition assay (focus reduction), HCoV-OC43 on MRC-5 cells; type: cell-based, human coronavirus; conditions: for EC50: Betacoronavirus 1, OC43, MRC5, read-out: EC50 (µM) (95% CI); for activity at 0.3 µM / activity at 3 µM / activity at 33 µM: Betacoronavirus 1, OC43, MRC5, 20 h, read-out: Residual Virus Infectivity (%) HCoV-OC43
[5] = Cell viability MTS assay on MRC-5 cells; type: cell-based; conditions: human, same conditions as HCoV inhibition assay, read-out: CC50 (µM) (95% CI)
[6] = Cell viability MTS assay on MDCK cells; conditions: dog
[7] = test system: IFV-A H1N1; assay: Virus inhibition assay (focus reduction), IFV-A H1N1 on MDCK cells; type: cell-based; conditions: Influenza A virus, read-out: EC50 (µM) (95% CI)
[8] = test system: RSV-A2; assay: Virus inhibition assay (plaque reduction), RSV-A2 on Hep-2 cells; type: cell-based; conditions: human respiratory syncytial virus; for activity at 0.3 µM / activity at 3 µM / activity at 33 µM: HEp-2, 72 h, read-out: Residual Virus Infectivity (%) RSV-A2
[9] = in vitro; conditions: dog
[10] = in vitro; conditions: human
[11] = Cell viability MTS assay on Hep-2 cells; conditions: human
[12] = RSV-A2, Hep-2 cells, read-out: EC50 (µM) (95% CI)

CC(C)C(CC(=O)O)NC(=O)c1cc(-c2ccccc2)c(=O)n2c1sc1ccc(OC3CCCCC3)cc12 (centres unmarked) [Compound 19]
Cytotoxic effect microscopically visible [1]: -
Cytotoxic effect microscopically visible ([2]; 33 µM): -
Cytotoxic effect microscopically visible [3]: -

NS(=O)(=O)c1ccc(OC(=O)c2cc(-c3ccccc3)c(=O)n3c2sc2ccc(OC4CCCCC4)cc23)cc1 [Compound 23]
EC50 [4]: 0.23 µM
Cytotoxic effect microscopically visible ([2]; 33 µM): -
CC50 [5]: 18.2 µM

O=C(N[C@@H](Cc1ccc(O)cc1)C(=O)O)c1cc(-c2cccs2)c(=O)n2c1sc1ccc(OC3CCCCC3)cc12 [Compound 25]
EC50 [4]: 0.29 µM
CC50 [6]: 86.1 µM
Cytotoxic effect microscopically visible ([2]; 33 µM): -
CC50 [5]: 16.5 µM
EC50 [7]: 13.7 µM

O=C(NCc1ccccc1)c1cc(-c2ccccc2)c(=O)n2c1sc1ccc(OC3CCCCC3)cc12 [Compound 3]
activity at 0.3 µM [8]: 100%
activity at 3 µM [8]: 93%
activity at 33 µM [8]: 67%

C[C@H](CO)NC(=O)c1cc(-c2ccccc2)c(=O)n2c1sc1ccc(OC3CCCCC3)cc12 [Compound 7]
Cytotoxic effect microscopically visible [1]: -
Cytotoxic effect microscopically visible ([2]; 3 µM): -
Cytotoxic effect microscopically visible ([2]; 33 µM): -
Cytotoxic effect microscopically visible [3]: -

CCN(CC)CCCC(C)Nc1ccnc2cc(Cl)ccc12 (centres unmarked) [chloroquine, reference compound]
EC50 [4]: 0.19 µM

CCN(CC)CCOc1ccc2sc3c(C(=O)Oc4ccc(S(N)(=O)=O)cc4)cc(-c4ccccc4)c(=O)n3c2c1 [Compound 28]
Cytotoxic effect microscopically visible [1]: -
Cytotoxic effect microscopically visible ([2]; 33 µM): -
Cytotoxic effect microscopically visible [3]: -

O=C(N[C@@H](Cc1ccc(O)cc1)C(=O)O)c1cc(-c2ccc(Cl)cc2)c(=O)n2c1sc1ccc(OC3CCCCC3)cc12 [Compound 9]
EC50 [4]: 1.2 µM
Cytotoxic effect microscopically visible ([2]; 33 µM): -
CC50 [5]: 55.6 µM

O=C(NCC1(C(=O)O)CC1)c1cc(-c2ccccc2)c(=O)n2c1sc1ccc(OC3CCCCC3)cc12 [Compound 4]
Cytotoxic effect microscopically visible [1]: -
Cytotoxic effect microscopically visible ([2]; 33 µM): -

O=C(N[C@@H](Cc1ccc(O)cc1)C(=O)O)c1cc(-c2ccc(F)cc2)c(=O)n2c1sc1ccc(OC3CCCCC3)cc12 [Compound 14]
EC50 [4]: 1.09 µM
Cytotoxic effect microscopically visible ([2]; 33 µM): -
CC50 [5]: 62.2 µM

O=C(O)CCNC(=O)c1cc(-c2ccccc2)c(=O)n2c1sc1ccc(OC3CCCCC3)cc12 [Compound 10]
EC50 [4]: 7.97 µM
Cytotoxic effect microscopically visible ([2]; 33 µM): -
CC50 [5]: > 200 µM

O=C(O)C1CCN(C(=O)c2cc(-c3ccccc3)c(=O)n3c2sc2ccc(OC4CCCCC4)cc23)C1 (centres unmarked) [Compound 20]
activity at 0.3 µM [8]: 100%
activity at 3 µM [8]: 100%
activity at 33 µM [8]: 100%

CCOC(=O)C1=C[C@@H](OC(CC)CC)[C@H](NC(C)=O)[C@@H](N)C1 [oseltamivir, reference compound]
CC50 [9]: > 200 µM
EC50 [7]: 0.17 µM

O=C(N[C@@H](Cc1ccc(O)cc1)C(=O)O)c1ccc(=O)n2c1sc1ccc(OC3CCCCC3)cc12 [Compound 27]
EC50 [4]: 10 µM
CC50 [5]: 189 µM

CCN(CC)CCOc1ccc(-c2cc(C(=O)Oc3ccc(S(N)(=O)=O)cc3)c3sc4ccc(OC5CCCCC5)cc4n3c2=O)cc1 [Compound 22]
Cytotoxic effect microscopically visible ([2]; 33 µM): -
Cytotoxic effect microscopically visible [3]: -

COc1ccc(-c2cc(C(=O)N[C@@H](Cc3ccc(O)cc3)C(=O)O)c3sc4ccc(OC5CCCCC5)cc4n3c2=O)cc1F [Compound 2]
activity at 0.3 µM [4]: 95%
activity at 3 µM [4]: 54%
activity at 33 µM [4]: 1%
EC50 [4]: 4.67 µM
Cytotoxic effect microscopically visible ([2]; 33 µM): -
CC50 [5]: 82.9 µM
activity at 0.3 µM [8]: 100%
activity at 3 µM [8]: 44%

O=C(c1cc(-c2ccccc2)c(=O)n2c1sc1ccc(OC3CCCCC3)cc12)N1CCC[C@@H](O)C1 [Compound 11]
Cytotoxic effect microscopically visible [1]: -
Cytotoxic effect microscopically visible ([2]; 3 µM): -
Cytotoxic effect microscopically visible ([2]; 33 µM): -
Cytotoxic effect microscopically visible [3]: -

NC(=O)CCNC(=O)c1cc(-c2ccccc2)c(=O)n2c1sc1ccc(OC3CCCCC3)cc12 [Compound 12]
Cytotoxic effect microscopically visible ([2]; 33 µM): -

NC(=O)c1ncn([C@@H]2O[C@H](CO)[C@@H](O)[C@H]2O)n1 [ribavirin, reference compound]
CC50 [10]: > 2400 µM
EC50 [8, 12]: 37 µM

O=C(N[C@@H](Cc1ccc(O)cc1)C(=O)O)c1cc(-c2ccccc2)c(=O)n2c1sc1ccc(OC3CCCC3)cc12 [Compound 17]
Cytotoxic effect microscopically visible ([2]; 33 µM): -

O=C(O)CC(NC(=O)c1cc(-c2ccccc2)c(=O)n2c1sc1ccc(OC3CCCCC3)cc12)c1ccccc1 (centres unmarked) [Compound 6]
Cytotoxic effect microscopically visible [1]: -
Cytotoxic effect microscopically visible ([2]; 3 µM): -
Cytotoxic effect microscopically visible ([2]; 33 µM): -

CC(CC(=O)O)NC(=O)c1cc(-c2ccccc2)c(=O)n2c1sc1ccc(OC3CCCCC3)cc12 (centres unmarked) [Compound 21]
Cytotoxic effect microscopically visible [1]: -
Cytotoxic effect microscopically visible ([2]; 33 µM): -
Cytotoxic effect microscopically visible [3]: -

O=C(N[C@@H](Cc1ccc(O)cc1)C(=O)O)c1cc(-c2ccccc2F)c(=O)n2c1sc1ccc(OC3CCCCC3)cc12 [Compound 15]
activity at 0.3 µM [8]: 86%
activity at 3 µM [8]: 85%
activity at 33 µM [8]: 40%

O=C(N[C@@H](CO)C(=O)O)c1cc(-c2ccccc2)c(=O)n2c1sc1ccc(OC3CCCCC3)cc12 [Compound 8]
activity at 0.3 µM [8]: 100%
activity at 3 µM [8]: 100%
activity at 33 µM [8]: 98%

O=C(N[C@@H](Cc1ccccc1)C(=O)O)c1cc(-c2ccccc2)c(=O)n2c1sc1ccc(OC3CCCCC3)cc12 [Compound 26]
Cytotoxic effect microscopically visible [1]: -
Cytotoxic effect microscopically visible ([2]; 33 µM): -

O=C(NCc1ccc(O)cc1)c1cc(-c2ccccc2)c(=O)n2c1sc1ccc(OC3CCCCC3)cc12 [Compound 13]
activity at 0.3 µM [4]: 100%
activity at 3 µM [4]: 100%
activity at 33 µM [4]: 64%
CC50 [11]: > 200 µM
activity at 0.3 µM [8]: 100%
activity at 3 µM [8]: 15%
activity at 33 µM [8]: 0%
EC50 ([8]; HEp-2, read-out: EC50 (µM) (95% CI)): 2.87 µM

NS(=O)(=O)c1ccc(OC(=O)c2ccc(=O)n3c2sc2ccc(OC4CCCCC4)cc23)cc1 [Compound 24]
Cytotoxic effect microscopically visible [1]: -
Cytotoxic effect microscopically visible ([2]; 33 µM): -
Cytotoxic effect microscopically visible [3]: -

NS(=O)(=O)c1ccc(OC(=O)c2cc(NCCN3CCOCC3)c(=O)n3c2sc2ccc(OC4CCCCC4)cc23)cc1 [Compound 29]
Cytotoxic effect microscopically visible [1]: -
Cytotoxic effect microscopically visible ([2]; 33 µM): -
Cytotoxic effect microscopically visible [3]: -

O=C(N[C@@H](Cc1ccc(O)cc1)C(=O)O)c1cc(-c2ccccc2)c(=O)n2c1sc1cc(OC3CCCCC3)ccc12 [Compound 5]
Cytotoxic effect microscopically visible [1]: -
Cytotoxic effect microscopically visible ([2]; 33 µM): -

O=C(N[C@@H](Cc1ccc(O)cc1)C(=O)O)c1cc(-c2cccc(F)c2)c(=O)n2c1sc1ccc(OC3CCCCC3)cc12 [Compound 16]
EC50 [4]: 4.22 µM
CC50 [5]: 84.7 µM
CC50 [11]: 72.9 µM
EC50 [8, 12]: 18.6 µM
